Assay results as given in PubChem BioAssay AID248 (DTP/NCI, 2004).
Values joined by “and” are separate entries in the source; they are usually repeats but may differ in a detail not shown here. Equal values may be shown once. Inconclusive results and toxic doses are left out. No stated cut-off is given here; in the data, active means T/C of 150% or more; inactive means T/C below 125%.

System: L1210 leukemia ip in BDF1 mice, survival T/C
Assay: NCI In Vivo Anticancer Drug Screen. Data for tumor model L1210 Leukemia (intraperitoneal) in B6D2F1 (BDF1) mice
Details: endpoint: mean survival time, higher = longer survival
In short: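 Read-out is survival time, reported as the treated-group measurement over the vehicle-control measurement.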

[1] = dose: 100.0 mg/kg/injection, schedule: Q01DX001 (ip), vehicle: Klucel (hydroxypropylcellulose) (HPC)
[2] = dose: 25.0 mg/kg/injection, schedule: Q01DX009 (ip), vehicle: saline
[3] = dose: 100.0 mg/kg/injection, schedule: Q01DX001 (ip), vehicle: saline
[4] = dose: 200.0 mg/kg/injection, schedule: Q01DX001 (ip), vehicle: saline
[5] = dose: 400.0 mg/kg/injection, schedule: Q01DX001 (ip), vehicle: saline
[6] = dose: 50.0 mg/kg/injection, schedule: Q01DX009 (ip), vehicle: saline

Measured: T/C

NC1=NC(CCc2ccccc2)N(c2ccc3ccccc3c2)C(N)=N1 (stereo not given)
inactive: dose: 4.7 mg/kg/injection, schedule: Q01DX009 (ip), vehicle: saline sonified 96 % of control | dose: 9.4 mg/kg/injection, schedule: Q01DX009 (ip), vehicle: saline sonified 103 % of control | dose: 18.8 mg/kg/injection, schedule: Q01DX001 (ip), vehicle: saline 91 % of control

CC(C)Nc1ccc(C(=O)O)cc1
inactive: [1] 100 % of control | dose: 100.0 mg/kg/injection, schedule: Q04DX003 (ip), vehicle: Klucel (hydroxypropylcellulose) (HPC) 98 % of control | dose: 200.0 mg/kg/injection, schedule: Q01DX001 (ip), vehicle: Klucel (hydroxypropylcellulose) (HPC) 91 % of control | dose: 200.0 mg/kg/injection, schedule: Q04DX003 (ip), vehicle: Klucel (hydroxypropylcellulose) (HPC) 100 % of control | dose: 400.0 mg/kg/injection, schedule: Q01DX001 (ip), vehicle: Klucel (hydroxypropylcellulose) (HPC) 102 % of control | dose: 400.0 mg/kg/injection, schedule: Q04DX003 (ip), vehicle: Klucel (hydroxypropylcellulose) (HPC) 100 % of control

CC1C(O)CC2CC1C2(C)C (stereo not given)
inactive: dose: 50.0 mg/kg/injection, schedule: Q01DX001 (ip), vehicle: saline with Tween-80 94 % of control | dose: 100.0 mg/kg/injection, schedule: Q01DX001 (ip), vehicle: saline with Tween-80 93 % of control | dose: 200.0 mg/kg/injection, schedule: Q01DX001 (ip), vehicle: saline with Tween-80 102 % of control

CC(C)(C)NCCCN1CC1(C)C (stereo not given)
inactive: dose: 6.25 mg/kg/injection, schedule: Q01DX009 (ip), vehicle: saline 90 % of control | dose: 6.25 mg/kg/injection, schedule: Q04DX003 (ip), vehicle: saline 103 % of control | dose: 12.5 mg/kg/injection, schedule: Q01DX009 (ip), vehicle: saline 93 % of control | dose: 12.5 mg/kg/injection, schedule: Q04DX003 (ip), vehicle: saline 114 % of control | [2] 93 % of control and 121 % of control | dose: 25.0 mg/kg/injection, schedule: Q04DX003 (ip), vehicle: saline 117 % of control | [3] 110 % of control

O=CNC1CCCCC1
inactive: dose: 20.0 mg/kg/injection, schedule: Q01DX009 (ip), vehicle: saline with Tween-80 93 % of control | dose: 40.0 mg/kg/injection, schedule: Q01DX001 (ip), vehicle: saline with Tween-80 100 % of control | dose: 40.0 mg/kg/injection, schedule: Q01DX009 (ip), vehicle: saline with Tween-80 93 % of control | dose: 80.0 mg/kg/injection, schedule: Q01DX001 (ip), vehicle: saline with Tween-80 100 % of control | dose: 80.0 mg/kg/injection, schedule: Q01DX009 (ip), vehicle: saline with Tween-80 91 % of control

CCCCNS(=O)(=O)c1ccc(OC)c(NC(=O)c2ccc(C(=O)Nc3cc(S(=O)(=O)NCCCC)ccc3OC)cc2)c1
inactive: [3] 105 % of control | [4] 94 % of control | [5] 94 % of control

[CH3][Sb]1([CH3])([I])[CH2]CC[CH2]1
inactive: dose: 100.0 mg/kg/injection, schedule: Q04DX003 (ip), vehicle: saline 101 % of control | dose: 200.0 mg/kg/injection, schedule: Q04DX003 (ip), vehicle: saline 97 % of control | dose: 400.0 mg/kg/injection, schedule: Q04DX003 (ip), vehicle: saline 101 % of control

O=C(COc1cc(Cl)c(Cl)cc1Cl)Nc1ccc(N=Nc2ccccc2)cc1
inactive: dose: 100.0 mg/kg/injection, schedule: Q04DX002 (ip), vehicle: Klucel (hydroxypropylcellulose) (HPC) 99 % of control | dose: 200.0 mg/kg/injection, schedule: Q04DX002 (ip), vehicle: Klucel (hydroxypropylcellulose) (HPC) 99 % of control | dose: 400.0 mg/kg/injection, schedule: Q04DX002 (ip), vehicle: Klucel (hydroxypropylcellulose) (HPC) 86 % of control

Cc1cc(N)c(C(=O)NN)cc1C
inactive: [3] 96 % of control | [4] 93 % of control | [5] 113 % of control

CCN(CC)CCNCc1ccc(Cl)cc1
inactive: dose: 25.0 mg/kg/injection, schedule: Q04DX003 (ip), vehicle: Klucel (hydroxypropylcellulose) (HPC) 92 % of control | dose: 50.0 mg/kg/injection, schedule: Q04DX003 (ip), vehicle: Klucel (hydroxypropylcellulose) (HPC) 96 % of control | dose: 75.0 mg/kg/injection, schedule: Q04DX003 (ip), vehicle: Klucel (hydroxypropylcellulose) (HPC) 96 % of control and 103 % of control

O=C1OC(c2c3ccccc3cc3ccccc23)c2ccccc21 (stereo not given)
inactive: dose: 50.0 mg/kg/injection, schedule: Q01DX009 (ip), vehicle: saline with Tween-80 98 % of control | dose: 100.0 mg/kg/injection, schedule: Q01DX009 (ip), vehicle: saline with Tween-80 98 % of control | dose: 200.0 mg/kg/injection, schedule: Q01DX009 (ip), vehicle: saline with Tween-80 95 % of control

O=C1C=CC(=O)N1CCCCCCCCCCN1C(=O)C=CC1=O
inactive: dose: 1.0 mg/kg/injection, schedule: Q01DX Z (ip), vehicle: methylcellulose (MC) 94 % of control | dose: 1.4 mg/kg/injection, schedule: Q01DX Z (ip), vehicle: methylcellulose (MC) 96 % of control | dose: 2.2 mg/kg/injection, schedule: Q01DX Z (ip), vehicle: methylcellulose (MC) 90 % of control

CS(=O)(=O)OCCC#N
inactive: [6] 103 % of control | dose: 100.0 mg/kg/injection, schedule: Q01DX009 (ip), vehicle: saline 101 % of control | dose: 100.0 mg/kg/injection, schedule: Q04DX003 (ip), vehicle: alcohol 102 % of control | dose: 200.0 mg/kg/injection, schedule: Q04DX003 (ip), vehicle: alcohol 93 % of control

CN(C)CCOC(=O)c1ccccc1CBr
inactive: [2] 97 % of control | [6] 95 % of control | dose: 75.0 mg/kg/injection, schedule: Q01DX009 (ip), vehicle: saline 93 % of control

O=c1oc(-c2cccc([N+](=O)[O-])c2)nc2cc(Cl)ccc12
inactive: dose: 50.0 mg/kg/injection, schedule: Q04DX002 (ip), vehicle: saline with Tween-80 90 % of control | dose: 100.0 mg/kg/injection, schedule: Q04DX002 (ip), vehicle: saline with Tween-80 93 % of control | dose: 200.0 mg/kg/injection, schedule: Q04DX002 (ip), vehicle: saline with Tween-80 93 % of control | dose: 400.0 mg/kg/injection, schedule: Q04DX002 (ip), vehicle: saline with Tween-80 107 % of control

O=C(O)CCCCCCCCCCNC(=O)Nc1cccc(C(F)(F)F)c1
inactive: dose: 100.0 mg/kg/injection, schedule: Q01DX001 (ip), vehicle: gum acacia 92 % of control and 96 % of control | dose: 100.0 mg/kg/injection, schedule: Q01DX009 (ip), vehicle: gum acacia 92 % of control | dose: 100.0 mg/kg/injection, schedule: Q04DX002 (ip), vehicle: gum acacia 93 % of control and 88 % of control | dose: 100.0 mg/kg/injection, schedule: Q04DX003 (ip), vehicle: gum acacia 93 % of control and 89 % of control and 90 % of control | dose: 200.0 mg/kg/injection, schedule: Q01DX001 (ip), vehicle: gum acacia 94 % of control and 89 % of control | dose: 200.0 mg/kg/injection, schedule: Q01DX009 (ip), vehicle: gum acacia 93 % of control | dose: 200.0 mg/kg/injection, schedule: Q04DX002 (ip), vehicle: gum acacia 92 % of control and 89 % of control | dose: 200.0 mg/kg/injection, schedule: Q04DX003 (ip), vehicle: gum acacia 93 % of control and 97 % of control and 88 % of control | dose: 400.0 mg/kg/injection, schedule: Q01DX001 (ip), vehicle: gum acacia 92 % of control and 96 % of control | dose: 400.0 mg/kg/injection, schedule: Q01DX009 (ip), vehicle: gum acacia 93 % of control | dose: 400.0 mg/kg/injection, schedule: Q04DX002 (ip), vehicle: gum acacia 86 % of control and 90 % of control | dose: 400.0 mg/kg/injection, schedule: Q04DX003 (ip), vehicle: gum acacia 94 % of control and 88 % of control

Oc1ccc2ccccc2c1/C=C/c1ccncc1
inactive: dose: 6.25 mg/kg/injection, schedule: Q01DX009 (ip), vehicle: Klucel (hydroxypropylcellulose) (HPC) 96 % of control | dose: 12.5 mg/kg/injection, schedule: Q01DX009 (ip), vehicle: Klucel (hydroxypropylcellulose) (HPC) 97 % of control | dose: 25.0 mg/kg/injection, schedule: Q01DX001 (ip), vehicle: Klucel (hydroxypropylcellulose) (HPC) 98 % of control | dose: 25.0 mg/kg/injection, schedule: Q01DX009 (ip), vehicle: Klucel (hydroxypropylcellulose) (HPC) 100 % of control | dose: 50.0 mg/kg/injection, schedule: Q01DX001 (ip), vehicle: Klucel (hydroxypropylcellulose) (HPC) 102 % of control | dose: 50.0 mg/kg/injection, schedule: Q01DX009 (ip), vehicle: Klucel (hydroxypropylcellulose) (HPC) 89 % of control | [1] 105 % of control and 91 % of control

NC(=S)NN=C1CCN(Cc2ccccc2)CC1
inactive: dose: 50.0 mg/kg/injection, schedule: Q01DX001 (ip), vehicle: saline 95 % of control | [3] 101 % of control

CCn1cnc2c(SC(C)C)ncnc21
inactive: dose: 16.0 mg/kg/injection, schedule: Q01DX Z (ip), vehicle: carboxymethylcellulose (CMC) 95 % of control | dose: 31.0 mg/kg/injection, schedule: Q01DX Z (ip), vehicle: carboxymethylcellulose (CMC) 101 % of control | dose: 62.0 mg/kg/injection, schedule: Q01DX Z (ip), vehicle: carboxymethylcellulose (CMC) 107 % of control
